Tests used:
Assay type in all cases: cell-based
[1] = system: Human iPS cell-derived mesenchymal stem cells; test: Differentiation to cartilaginous cells and cartilage matrix production in two-dimensional culture (Alcian blue); details: Table 2a: garcinia extract or glucosamine (B4) alone; about 10 days culture; Alcian blue OD 620 nm; control = 1
Description: In accordance with PLOS ONE, (US), 2014, 9 (12), e112291. DOI: 10.1371/journal.pone.0112291 (hereinafter, described as “Document A”), mesenchymal stem cells were induced from human normal iPS cells via neural crest cells, added with an equivalent amount of a cell freezing damage protection liquid CP-1 (manufactured by KYOKUTO PHARMACEUTICAL INDUSTRIAL CO., LTD), and cryopreserved.
Human iPS cell-derived mesenchymal stem cells were thawed and grown, and seeded in a 96 well plate (manufactured by Corning) in 1×10^5 cells/well. After 24 hours, the culture supernatant was removed, and replaced with a culture medium to induce differentiation to cartilaginous cells in accordance with Document A. To the culture medium to induce differentiation to cartilaginous cells, the garcinia extract and/or the component (B) (components (B1) to (B4)) as test substances were added so that the final concentration was the concentration shown in Tables 1 to 3. No test substance was added to the control group. The cells were cultured for about 10 days, and then fixed with a 4% paraformaldehyde·phosphate buffer (manufactured by FUJIFILM Wako Pure Chemical Corporation). After fixed, the cells were stained with an Alcian blue solution (manufactured by MUTO PURE CHEMICALS CO., LTD.) for 1 hour, and the dye was eluted using a 6 M guanidine hydrochloride solution (manufactured by Tokyo Chemical Industry Co., Ltd.). The eluate was transferred to a 96 well plate, and the OD value of each well at 620 nm was measured with a microplate reader to measure the amount of matrix produced by differentiation-induced cartilaginous cells.

[2] = system: human bone marrow-derived mesenchymal stem cells; test: Induction of differentiation to cartilaginous cells in three-dimensional culture (safranin O area); details: for Differentiated cartilaginous cell area ratio: control = 1; for activity to induce differentiation to cartilaginous cells (in words): summary of Tables 4 to 11
Protocol: In accordance with Tissue Engineering, (US), 2010, 16 (1), p 81-91. DOI: 10.1089=ten.tec.2008.0693, mesenchymal stem cells were isolated from human normal bone marrow in a dedicated culture medium, and then the cells were grown. The grown cells were recovered, added with an equivalent amount of a cell freezing damage protection liquid CP-1 (KYOKUTO PHARMACEUTICAL INDUSTRIAL CO., LTD), and cryopreserved.
It is known that cartilaginous cells dedifferentiate in two-dimensional culture. As a culture system of cartilaginous cells closer to nature, a technique called three-dimensional culture is adopted. The thawed and grown human bone marrow-derived mesenchymal stem cells were dispensed into 15 mL tubes (made of TPP) by 2.5×10^5 cells, and centrifuged at 1000 rpm for 3 minutes at room temperature. The supernatant was removed and replaced with 0.5 mL of a culture medium to induce differentiation to cartilaginous cells in accordance with Document A. At the same time, as test substances, the garcinia extract, HCA·Ca, and/or the component (B) (components (B1) to (B4)) were added at the concentration shown in Tables 4 to 11. After cultured for 21 days, the cells were fixed in a 4% paraformaldehyde·phosphate buffer for 12 hours, dehydrated in 70% ethanol, and then embedded in paraffin, and then specimens were prepared. In the prepared specimen, the acidic polysaccharides as a cartilage matrix was stained with safranin O, and then the morphology of differentiated cartilaginous cells was observed using an optical microscope (magnification: 10 times). Furthermore, regarding the area showing a red color by safranin O staining, the relative area (differentiated cartilaginous cell area ratio) was calculated using an image analysis software Image J such that the control (Comparative Example 1) had the area of 1.
Except that the component (component (B4)) shown in Table 12 (a) and Table 12 (b) was used as the component (B), and the addition amount of the component (A) and the component (B) (component (B4)) was as shown in Table 12 (a) and Table 12 (b), the same procedure as in Test example 2 was carried out to calculate the differentiated cartilaginous cell area ratio and measure the amount of GAG. The results of the differentiated cartilaginous cell area ratio are shown in Table 12 (a) and Table 12 (b), and the measurement results of the amount of GAG are shown in FIG. 5.

[3] = system: human bone marrow-derived mesenchymal stem cells; test: Cartilage matrix production activity (amount of GAG in pellets); details: FIGS. 1 to 4; pellets after 21 days three-dimensional culture, papain digestion
Protocol: LLC is solubilized in 100 mM phosphate buffer pH 7.4, 5 mM L-cysteine hydrochloride monohydrate, and 10 mM EDTA), and then the amount of GAG (glycosaminoglycan) was measured using a GAG quantification kit (manufactured by Blyscan). The larger the amount of GAG, the larger the amount of cartilage matrix produced. […] The results of the differentiated cartilaginous cell area ratio are shown in Table 12 (a) and Table 12 (b), and the measurement results of the amount of GAG are shown in FIG. 5.

[4] = Table 12a, Test Example 3: HCA·Ca 25 μM or constituent sugar (B4) 2.5 μM alone
[5] = Table 6: garcinia extract and/or glucosamine (B4), 21 days, safranin O red area
[6] = Table 7: HCA·Ca and/or glucosamine (B4), 21 days, safranin O red area

Row | Compound | Ratio of cartilage matrix production [1] | Differentiated cartilaginous cell area ratio [2, 4] | other results
1 | N[C@H]1C(O)O[C@H](CO)[C@@H](O)[C@@H]1O (stereo partly shown) [compound 14, Glucosamine] | 1.00 | – | –
2 | N[C@H]1C(O)O[C@H](CO)[C@@H](O)[C@@H]1O (stereo partly shown) [compound 11, Glucosamine] | 1.01 | – | –
3 | N[C@H]1C(O)O[C@H](CO)[C@@H](O)[C@@H]1O (stereo partly shown) [compound 7, Glucosamine] | 1.01 | – | –
4 | CC(=O)N[C@H]1C(O)O[C@H](COS(=O)(=O)[O-])[C@H](O)[C@@H]1O.[Na+] (stereo partly drawn) [compound 46, Sodium N-acetyl-D-galactosamine 6-sulfate] | – | 1.4 | –
5 | N[C@H]1C(O)O[C@H](CO)[C@@H](O)[C@@H]1O (stereo partly shown) [compound 12, Glucosamine] | 1.02 | – | –
6 | CC(=O)N[C@H]1C(O)O[C@H](CO)[C@@H](O)[C@@H]1O (stereo partly drawn) [compound 41, N-acetyl-D-glucosamine] | – | 1.8 | –
7 | Cl.N[C@H]1C(O)O[C@H](CO)[C@H](O)[C@@H]1O (stereo partly drawn) [compound 44, D-(+)-galactosamine hydrochloride] | – | 0.7 | –
8 | O=C([O-])C[C@@](O)(C(=O)[O-])[C@H](O)C(=O)[O-].O=C([O-])C[C@@](O)(C(=O)[O-])[C@H](O)C(=O)[O-].[Ca+2].[Ca+2].[Ca+2] [compound 39, (−) Hydroxycitric acid-3 calcium] | – | 1.8 | –
9 | N[C@H]1C(O)O[C@H](CO)[C@@H](O)[C@@H]1O (stereo partly shown) [glucosamine, Glucosamine] | – | – | activity to induce differentiation to cartilaginous cells (in words) [2]: reduce the activity to induce differentiation to cartilaginous cells; cartilage matrix production activity (amount of GAG, in words) [3]: reduce the cartilage matrix production activity
10 | O=C([O-])C[C@@](O)(C(=O)[O-])[C@H](O)C(=O)[O-].O=C([O-])C[C@@](O)(C(=O)[O-])[C@H](O)C(=O)[O-].[Ca+2].[Ca+2].[Ca+2] [calcium hydroxycitrate, (−) Hydroxycitric acid-3 calcium] | – | – | activity to induce differentiation to cartilaginous cells (in words) [2]: exhibits an activity to induce differentiation to cartilaginous cells, the degree of which is limited; cartilage matrix production activity (amount of GAG, in words) [3]: exhibits a cartilage matrix production activity, the degree of which is limited
11 | N[C@H]1C(O)O[C@H](CO)[C@@H](O)[C@@H]1O (stereo partly shown) [compound 33, Glucosamine] | – | – | Differentiated cartilaginous cell area ratio [2, 5]: 0.1; Differentiated cartilaginous cell area ratio [2, 6]: 0.1
12 | N[C@H]1C(O)O[C@H](CO)[C@@H](O)[C@@H]1O (stereo partly shown) [compound 9, Glucosamine] | 1.01 | – | –
13 | Sodium hyaluronate [hyaluronic acid] | – | – | activity to induce differentiation to cartilaginous cells (in words) [2]: almost no activity to induce differentiation to cartilaginous cells; cartilage matrix production activity (amount of GAG, in words) [3]: almost no activity to induce differentiation to cartilaginous cells
14 | N[C@H]1C(O)O[C@H](CO)[C@@H](O)[C@@H]1O (stereo partly shown) [compound 13, Glucosamine] | 1.00 | – | –
15 | N[C@H]1C(O)O[C@H](CO)[C@@H](O)[C@@H]1O (stereo partly shown) [compound 10, Glucosamine] | 1.01 | – | –
16 | N[C@H]1C(O)O[C@H](CO)[C@@H](O)[C@@H]1O (stereo partly shown) [compound 34, Glucosamine] | – | – | Differentiated cartilaginous cell area ratio [2, 5]: 0.2; Differentiated cartilaginous cell area ratio [2, 6]: 0.2
17 | N[C@H]1C(O)O[C@H](CO)[C@@H](O)[C@@H]1O (stereo partly shown) [compound 6, Glucosamine] | 1.00 | – | –
18 | O=C([O-])C[C@@](O)(C(=O)[O-])[C@H](O)C(=O)[O-].O=C([O-])C[C@@](O)(C(=O)[O-])[C@H](O)C(=O)[O-].[Ca+2].[Ca+2].[Ca+2] [compound 32, (−) Hydroxycitric acid-3 calcium] | – | – | Differentiated cartilaginous cell area ratio ([2]; Table 5: HCA·Ca and/or chondroitin sulfate (B1), 21 days, safranin O red area): 1.7; Differentiated cartilaginous cell area ratio [2, 6]: 1.7; Differentiated cartilaginous cell area ratio ([2]; Table 9: HCA·Ca and/or hyaluronic acid (B3), 21 days, safranin O red area): 3.5; Differentiated cartilaginous cell area ratio ([2]; Table 11: HCA·Ca and/or proteoglycan (B2), 21 days, safranin O red area): 1.5
19 | Cl.N[C@H]1C(O)O[C@H](CO)[C@@H](O)[C@@H]1O (stereo partly drawn) [compound 40, D-(+)-glucosamine hydrochloride] | – | 0.6 | –
20 | CC(=O)N[C@H]1C(O)O[C@H](CO)[C@H](O)[C@@H]1O (stereo partly drawn) [compound 45, N-acetyl-D-galactosamine] | – | 1 | –
21 | CC(=O)N[C@H]1C(O)O[C@H](COS(=O)(=O)[O-])[C@@H](O)[C@@H]1O.[Na+] (stereo partly drawn) [compound 42, Sodium N-acetyl-D-glucosamine 6-sulfate] | – | 2 | –
22 | N[C@H]1C(O)O[C@H](CO)[C@@H](O)[C@@H]1O (stereo partly shown) [compound 8, Glucosamine] | 1.01 | – | –
23 | O=C[C@H](O)[C@@H](O)[C@H](O)[C@H](O)C(=O)O [compound 43, D-glucuronic acid] | – | 0.7 | –

Source: patent publication US20260124237A1, “CARTILAGE REGENERATION COMPOSITION” (KOBAYASHI PHARMACEUTICAL CO., LTD., priority 2021, published 2026)
